{"source": "patent EP1656183B1", "about": "“TREATMENT OF MALE SEXUAL DYSFUNCTION” (Pfizer Limited, priority 2003, dated 2005)", "key": {"human Oxytocin receptor": {"target": "T1, human Oxytocin receptor (Homo sapiens, UniProt P30559)", "T1 construct": "expressed in transfected cells; host or cells: CHO", "T1 sequence (P30559 1-389)": "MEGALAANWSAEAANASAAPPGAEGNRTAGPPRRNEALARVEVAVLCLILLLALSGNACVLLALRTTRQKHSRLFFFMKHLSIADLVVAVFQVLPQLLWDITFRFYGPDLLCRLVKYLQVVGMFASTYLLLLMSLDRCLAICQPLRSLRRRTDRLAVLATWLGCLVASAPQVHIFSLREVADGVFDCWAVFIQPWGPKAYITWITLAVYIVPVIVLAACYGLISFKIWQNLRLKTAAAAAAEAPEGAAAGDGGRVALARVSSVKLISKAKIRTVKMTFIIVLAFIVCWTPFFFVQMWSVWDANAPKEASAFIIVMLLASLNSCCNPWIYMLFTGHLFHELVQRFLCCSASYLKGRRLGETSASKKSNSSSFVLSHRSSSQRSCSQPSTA", "test": "Oxytocin receptor binding assay (125I-OVT, SPA)", "method": "As an example for a selectivity assay, an oxytocin receptor binding assay is described below.\nCHO-cells engineered to express the human Oxytocin receptor are maintained, and membrane preparations from such cells are prepared according to standard techniques (see e.g. Example 2). They are diluted to 1 mg/ml protein concentration in assay buffer (50 mM Tris-HCl, pH7.8; 10 mM Mg Cl2; 0.25% BSA). SPA beads are resuspended at 50 mg/ml in assay buffer. From these concentrations, beads are pre-coupled with membranes by incubating 30 µg of protein per mg of bead on a top-to-tail shaker for 2 hours at 4 °C. The bead/membranes are then centrifuged at 2000 rpm for 10 mins and the pellet is resuspended at 3 mg/ml.\nAll manipulations of the ^125I-OVT (NEN, NEX254) are carried out using tips that have been silanised using SigmaCote. All bottles and tubes are also silanised. […] A 5 µl sample is then counted in duplicate using liquid scintillation counting (protocol 61 on Wallac Counter) and the concentration of the ligand is calculated. […] Using the measured concentration, the ^125I-OVT is diluted to 0.3 nM in assay buffer.\n20 µl of the bead/membrane preparation is added to the prepared Optiplates using the Multi-drop, after the desired dilutions of test compounds are added to the wells. […] Following a 4 hour incubation at room temperature, the plates are counted using the TopCount NXT for 30s/well."}, "anaesthetised rats": {"system": "anaesthetised rats", "test": "p-chloroamphetamine (PCA)-induced ejaculation and penile erection in anaesthetised rats", "type": "in vivo, Male Sprague Dawley rats", "settings": "for delay of p-chloroamphetamine (PCA)-induced ejaculation: vasopressin selective doses, plasma concentration of 9-31 nM; for Penile Cups / Penile Flares: % of PCA-induced erections", "method": "In order to study penile erection and ejaculation the method used was based on the methodology taught in Yonezawa et al (2000) Life Sciences 67, 3031-3039. For ease of reference, this methodology is described below:\nMale Sprague Dawley rats, weighing 350-450 g, are used. Prior to the experiments the animals are housed in groups (2 rats per cage) under controlled 12 h light-dark cycle (lights on at 07:00), constant temperature (23±1°C) and humidity (55±5%). They have free access to standard food pellets and water.\nRats are anesthestised with sodium pentobarbitone (50mg/kg, i.p.) and are placed in the supine position. The penis is extruded from its sheath and gently held by a wooden applicator positioned at the base of the penis. The test compounds are administered by intravenous infusion and p-chloroamphetamine (PCA) (5-10mg/kg) is administered i.p. immediately before the sheath retraction and the penile responses, including penile erection, redding and expansion of the penile body, glans erection, engorgement and slight flaring of the glans and cup, glans erection with Intense flaring of the glans, are recorded. Latencies from PCA administration to the initial penile response and ejaculation is also measured In seconds. […]"}, "human V1A receptor": {"target": "T2, human V1A receptor (Homo sapiens, UniProt P37288)", "T2 construct": "expressed in transfected cells; host or cells: CHO (CHO-hV1A cell line provided by Marc Thibonnier, Case Western Reserve University)", "T2 sequence (P37288 whole entry)": "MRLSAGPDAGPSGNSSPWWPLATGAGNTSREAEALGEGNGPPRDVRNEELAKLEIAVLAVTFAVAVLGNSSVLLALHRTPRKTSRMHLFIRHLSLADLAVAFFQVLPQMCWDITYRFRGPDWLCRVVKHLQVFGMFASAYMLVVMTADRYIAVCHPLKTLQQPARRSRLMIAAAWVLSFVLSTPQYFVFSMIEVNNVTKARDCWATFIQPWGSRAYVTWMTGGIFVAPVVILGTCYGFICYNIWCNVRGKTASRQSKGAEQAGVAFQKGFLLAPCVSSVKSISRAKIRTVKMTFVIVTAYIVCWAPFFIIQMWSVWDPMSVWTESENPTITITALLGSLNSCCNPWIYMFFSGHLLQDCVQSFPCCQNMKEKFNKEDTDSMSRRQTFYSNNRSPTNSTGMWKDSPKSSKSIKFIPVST", "test": "Ligand binding assay, [3H]-AVP binding to CHO-hV1A membranes", "experimental": "Receptor binding assays were performed on cellular membranes prepared from CHO cells stably expressing the human V1A receptor, (CHO-hV1A). […] CHO-hV1A cells were routinely maintained at 37°C In humidified atmosphere with 5% CO2 in DMEM/Hams F12 nutrient mix supplemented with 10 % fetal bovine serum, 2 mM L-glutamine, 15 mM HEPES and 400 µg/ml G418. For bulk production of cell pellets, adherent CHO-hV1A cells were grown to confluency of 90-100% in 850 cm^2 roller bottles containing a medium of DMEM/Hams F12 Nutrient Mix supplemented with 10 % fetal bovine serum, 2 mM L-glutamine and 15 mM HEPES. Confluent CHO-hV1A cells were washed with phosphate-buffered saline (PBS), harvested into ice cold PBS and centrifuged at 1,000 rpm. Cell pellets were stored at -80°C until use. Cell pellets were thawed on ice and homogenised in membrane preparation buffer consisting of 50 mM Tris-HCI, pH 7.4, 5 mM MgCl2 and supplemented with a protease inhibitor cocktail, (Roche). The cell homogenate was centrifuged at 1000 rpm, 10 min, 4°C and the supernatant was removed and stored on ice. The remaining pellet was homogenised and centrifuged as before. The supernatants were pooled and centrifuged at 25,000 x g for 30 min at 4°C. The pellet was resuspended in freezing buffer consisting of 50 mM Tris-HCI, pH 7.4, 5 mM MgCl2 and 20 % glycerol and stored in small aliquots at -80°C until use. Protein concentration was determined using Bradford reagent and BSA as a standard.\nProtein linearity followed by saturation binding studies were performed on each new batch of membrane. A membrane concentration was chosen that gave specific binding on the linear portion of the curve. […]\nCompounds were tested for their effects on [^3H]-AVP binding to CHO-hV1A membranes, (^3H-AVP; specific activity 65.5 Ci/mmol; NEN Life Sciences). […] The plates were sealed and counted on a TopCount Microplate Scintillation Counter (Packard Instruments). Non-specific binding (NSB) was determined using 1 µM unlabelled d(CH2)5Tyr(Me)AVP ([β-mercapto-β,β-cyclopentamethylene-propionyl,0-Me-Tyr^2,Arg^8]-vasopressin) (βMCPVP), (Sigma). The radioligand binding data was analysed using a four parameter logistic equation with the min forced to 0%. […] Specific binding was calculated by subtracting the mean NSB cpm from the mean Total cpm. For test compounds the amount of ligand bound to the receptor was expressed as % bound = (sample cpm - mean NSB cpm)/specific binding cpm x100. […] The Inhibitory dissociation constant (Ki) was calculated using the Cheng-Prusoff equation: Ki=IC50/(1+[L]/Kd) where [L] is the concentration of ligand present in the well and Kd is the dissociation constant of the radioligand obtained from Scatchard plot analysis."}, "conscious rats": {"system": "conscious rats", "test": "Copulatory behaviour in conscious rats (ejaculatory latency)", "type": "in vivo", "settings": "0.05mgkg^-1 sc", "method": "For all the sexual behavour tests, the male rats were placed in an observation arena (50-60 cm diameter), starting 5 hours into the dark cycle and observed under red ilumination. Three to four minutes after placing the male in the arena, a receptive female (ovariectomised, oestradiol benzoate / progesterone injection 48 hour before behavioural study) was Introduced into the arena and the following parameters noted: • i) ejaculatory latency (EJL; time taken from addition of receptive female into the arena to ejaculation); • ii) copulatory efficiency (CE; ejaculatory latency/ the number of intromissions to ejaculation, i.e. the number of seconds between intromissions); • iii) intromission frequency (IF; the number of intromissions to ejaculation); • iv) mount frequency (MF; the number of mounts to ejaculation); • v) post ejaculatory interval (PEI; the time taken from ejaculation to the commencement of copulatory behaviour).\nRodent copulatory behaviour is characterised by a series of mounts, with and without vaginal insertion (50-80% of mounts result in intromission [vaginal penetration]) and ejaculation occurs after 6 to 12 intromissions. Each intromission lasts a matter of seconds - it is not possible to quantify intromission length i.e. intravaginal latency. The effect of L-371257 was assessed on a number of copulatory parameters (see above). […]"}, "[1]": {"test": "Plasma concentration in the copulatory behaviour study", "type": "in vivo", "settings": "0.05mgkg^-1 sc, rats"}, "[2]": {"settings": "plasma conc 30.9nM, listed as compound 1"}}, "note": "Where two headings read alike, the source gives them in different places."}
{"smiles": "COC1CCN(Cc2nnc(C3CCN(c4ccccn4)CC3)n2Cc2ccccc2)CC1", "note": "[Compound 1, 4-[4-Benzyl-5-(4-methoxy-piperldin-1-ylmethyl)-4H-[1,2,4]triazol-3-yl]-3,4,5,6-tetrahydro-2H-[1,2']bipyridinyl]", "values": [{"measurement": "Ki", "setting": "human Oxytocin receptor; read-out: oxytocin receptors (OT; Ki OT)", "result": 3000, "unit": "nM"}, {"measurement": "time taken for the rats to achieve erection", "setting": "anaesthetised rats; anaesthetised rats, PCA-induced", "result": "not significantly affected"}, {"measurement": "Ejaculation was delayed", "setting": "anaesthetised rats; anaesthetised rats, free plasma concentrations 30.9nM, near maximal effect", "result": 100, "unit": "%"}, {"measurement": "delay of p-chloroamphetamine (PCA)-induced ejaculation", "setting": "anaesthetised rats; anaesthetised rats", "result": "delays ejaculation"}, {"measurement": "delay of p-chloroamphetamine (PCA)-induced ejaculation", "setting": "anaesthetised rats; anaesthetised rats, listed as compound 1", "result": "significantly delayed"}, {"measurement": "ejaculation and penile erection", "setting": "anaesthetised rats; at both plasma conc 11.4nM and 30.9nM", "result": "* At both of these concentrations Compound 1 delayed ejaculation without affecting penile erection."}, {"measurement": "Penile Cups", "setting": "anaesthetised rats; plasma conc 11.4nM", "result": 31.6, "unit": "%"}, {"measurement": "Penile Flares", "setting": "anaesthetised rats; plasma conc 11.4nM", "result": 81.5, "unit": "%"}, {"measurement": "Penile Cups", "setting": "anaesthetised rats; plasma conc 30.9nM", "result": 57.0, "unit": "%"}, {"measurement": "Penile Flares", "setting": "anaesthetised rats; plasma conc 30.9nM", "result": 83.6, "unit": "%"}, {"measurement": "Penile Cups", "setting": "anaesthetised rats; [2]", "result": 57, "unit": "%"}, {"measurement": "Penile Flares", "setting": "anaesthetised rats; [2]", "result": 84, "unit": "%"}, {"measurement": "Ki", "setting": "human V1A receptor", "result": 50, "unit": "nM"}, {"measurement": "selective towards vasopressin V1a receptors as compared with oxytocin receptors", "setting": "human V1A receptor", "result": "more than 60 fold"}]}
{"smiles": "COc1cc(OC2CCN(C(C)=O)CC2)ccc1C(=O)N1CCC(N2C(=O)OCc3ccccc32)CC1", "note": "[Compound L-371257, reference compound]", "values": [{"measurement": "Ki", "setting": "human Oxytocin receptor; read-out: oxytocin receptors (OT)", "result": 19, "unit": "nM"}, {"measurement": "other effects on copulatory behaviour", "setting": "conscious rats", "result": "no other significant effects"}, {"measurement": "Increased ejaculatory latency", "setting": "conscious rats; P<0.05 versus vehicle", "result": 67, "unit": "%"}, {"measurement": "Plasma conc", "setting": "[1]", "result": "L-371257 0.05mgkg^-1 sc Plasma conc ∼ 30nM"}, {"measurement": "selective towards oxytocin receptors as compared with vasopressin V1a receptors", "setting": "human V1A receptor; as printed: OT vs V1a", "result": "more than 5 fold"}, {"measurement": "Ki", "setting": "human V1A receptor; read-out: vasopressin V1a receptors (V1a; Ki V1a)", "result": 3.7, "unit": "nM"}]}
